Experimental data published in ChEMBL document CHEMBL3763132, “Discovery of highly selective CRAF inhibitors, 3-carboxamido-2H-indazole-6-arylamide: In silico FBLD design, synthesis and evaluation” (Bioorg Med Chem Lett, 2016).

Tests used:
[1] = Antiproliferative activity against human A375P cells by MTT assay; type: functional
[2] = Antiproliferative activity against human WM3629 cells by MTT/CellTiter 96 assay; type: functional
[3] = molecular target: Mast/stem cell growth factor receptor Kit (Homo sapiens) (UniProt P10721); test: Inhibition of human cKIT at 10 uM
[4] = molecular target: Tyrosine-protein kinase ABL1 (Homo sapiens) (UniProt P00519); test: Inhibition of human ABL1 at 10 uM
[5] = molecular target: Tyrosine-protein kinase Lck (Homo sapiens) (UniProt P06239); test: Inhibition of human LCK at 10 uM
[6] = molecular target: Proto-oncogene tyrosine-protein kinase Src (Homo sapiens) (UniProt P12931); test: Inhibition of human cSRC at 10 uM
[7] = molecular target: T1, Serine/threonine-protein kinase B-raf (Homo sapiens, UniProt P15056); test: Inhibition of BRAF (unknown origin)
[8] = molecular target: Mitogen-activated protein kinase 14 (Homo sapiens) (UniProt Q16539); test: Inhibition of human MAPK14 at 10 uM
[9] = molecular target: Dual specificity mitogen-activated protein kinase kinase 1 (Homo sapiens) (UniProt Q02750); test: Inhibition of human MEK1 at 10 uM
[10] = molecular target: Epidermal growth factor receptor (Homo sapiens) (UniProt P00533); test: Inhibition of human EGFR at 10 uM
[11] = molecular target: Serine/threonine-protein kinase B-raf (Homo sapiens, UniProt P15056, V600E); test: Inhibition of BRAF V599E mutant (unknown origin)
[12] = molecular target: Insulin-like growth factor 1 receptor (Homo sapiens) (UniProt P08069); test: Inhibition of human IGF1R at 10 uM
[13] = molecular target: Cyclin-dependent kinase 1/cyclin B1 (Homo sapiens) (UniProt P06493+P14635); test: Inhibition of human CDK1/cyclin B at 10 uM; type: protein-complex assay
[14] = molecular target: Hepatocyte growth factor receptor (Homo sapiens) (UniProt P08581); test: Inhibition of human cMET at 10 uM
[15] = molecular target: Macrophage colony-stimulating factor 1 receptor (Homo sapiens) (UniProt P07333); test: Inhibition of human FMS at 10 uM
[16] = molecular target: Vascular endothelial growth factor receptor 2 (Homo sapiens) (UniProt P35968); test: Inhibition of human KDR at 10 uM
[17] = molecular target: ALK tyrosine kinase receptor (Homo sapiens) (UniProt Q9UM73); test: Inhibition of human ALK at 10 uM
[18] = molecular target: RAC-alpha serine/threonine-protein kinase (Homo sapiens) (UniProt P31749); test: Inhibition of human AKT1 at 10 uM
[19] = molecular target: Tyrosine-protein kinase SYK (Homo sapiens) (UniProt P43405); test: Inhibition of human SYK at 10 uM
[20] = molecular target: T2, RAF proto-oncogene serine/threonine-protein kinase (Homo sapiens, UniProt P04049); settings: 10 uM
Description: Inhibition of human RAF1 at 10 uM

Homo sapiens = species: Homo sapiens; test: Inhibition of human PKA at 10 uM
[21] = molecular target: Tyrosine-protein kinase Lyn (Homo sapiens) (UniProt P07948); test: Inhibition of human LYN at 10 uM
[22] = molecular target: Aurora kinase A (Homo sapiens) (UniProt O14965); test: Inhibition of human Aurora A at 10 uM
[23] = molecular target: Mitogen-activated protein kinase 3 (Homo sapiens) (UniProt P27361); test: Inhibition of human ERK1 at 10 uM
[24] = molecular target: Serine/threonine-protein kinase mTOR (Homo sapiens) (UniProt P42345); test: Inhibition of human mTOR at 10 uM
[25] = molecular target: Focal adhesion kinase 1 (Homo sapiens) (UniProt Q05397); test: Inhibition of human FAK at 10 uM
[26] = molecular target: Fibroblast growth factor receptor 2 (Homo sapiens) (UniProt P21802); test: Inhibition of human FGFR2 at 10 uM
[27] = molecular target: Tyrosine-protein kinase JAK3 (Homo sapiens) (UniProt P52333); test: Inhibition of human JAK3 at 10 uM
[28] = molecular target: Receptor-type tyrosine-protein kinase FLT3 (Homo sapiens) (UniProt P36888); test: Inhibition of human FLT3 at 10 uM
[29] = molecular target: Glycogen synthase kinase-3 beta (Homo sapiens) (UniProt P49841); test: Inhibition of human GSK3beta at 10 uM
[30] = molecular target: Serine/threonine-protein kinase PLK1 (Homo sapiens) (UniProt P53350); test: Inhibition of human PLK1 at 10 uM
[31] = molecular target: Proto-oncogene tyrosine-protein kinase ROS (Homo sapiens) (UniProt P08922); test: Inhibition of human ROS1 at 10 uM
[32] = molecular target: Macrophage-stimulating protein receptor (Homo sapiens) (UniProt Q04912); test: Inhibition of human RON at 10 uM
[33] = Selectivity ratio of GI50 for human A375P cells to GI50 for human WM3629 cells; type: functional
[34] = molecular target: T2, RAF proto-oncogene serine/threonine-protein kinase; test: Inhibition of CRAF (unknown origin)
[35] = tested on: Serine/threonine-protein kinase B-raf (Homo sapiens), P15056 [V600E]; settings: 10 uM
Description: Inhibition of human BRAF V599E mutant at 10 uM

[36] = molecular target: Mitogen-activated protein kinase 10 (Homo sapiens) (UniProt P53779); test: Inhibition of human JNK3 at 10 uM
[37] = molecular target: Cyclin-dependent kinase 2/cyclin E1 (Homo sapiens) (UniProt P24864+P24941); test: Inhibition of human CDK2/cyclin E at 10 uM; type: protein-complex assay
[38] = molecular target: T1, Serine/threonine-protein kinase B-raf; settings: 10 uM
Description: Inhibition of human BRAF at 10 uM

[39] = molecular target: Fibroblast growth factor receptor 3 (Homo sapiens) (UniProt P22607); test: Inhibition of human FGFR3 at 10 uM

T1 sequence (P15056 whole entry): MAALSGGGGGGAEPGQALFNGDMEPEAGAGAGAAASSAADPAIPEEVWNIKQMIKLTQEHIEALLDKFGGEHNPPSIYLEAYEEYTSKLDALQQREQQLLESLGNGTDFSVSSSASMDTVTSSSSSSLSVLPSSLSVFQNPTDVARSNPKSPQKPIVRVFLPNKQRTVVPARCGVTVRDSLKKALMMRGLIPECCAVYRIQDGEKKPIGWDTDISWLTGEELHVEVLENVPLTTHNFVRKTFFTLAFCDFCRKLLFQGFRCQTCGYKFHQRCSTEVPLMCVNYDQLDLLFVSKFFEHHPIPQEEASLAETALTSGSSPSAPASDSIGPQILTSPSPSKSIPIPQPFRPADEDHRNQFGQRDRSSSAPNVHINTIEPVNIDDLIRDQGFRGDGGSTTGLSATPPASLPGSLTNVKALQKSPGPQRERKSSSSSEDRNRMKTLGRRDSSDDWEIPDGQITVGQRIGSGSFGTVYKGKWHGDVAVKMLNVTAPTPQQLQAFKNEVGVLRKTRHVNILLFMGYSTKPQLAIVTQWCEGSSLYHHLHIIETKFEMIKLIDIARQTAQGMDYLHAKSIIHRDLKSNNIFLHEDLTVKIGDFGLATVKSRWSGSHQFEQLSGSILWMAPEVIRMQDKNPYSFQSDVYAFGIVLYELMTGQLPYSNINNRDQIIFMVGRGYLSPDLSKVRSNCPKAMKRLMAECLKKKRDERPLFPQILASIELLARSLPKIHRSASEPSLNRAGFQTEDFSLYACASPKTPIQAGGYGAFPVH
T2 sequence (P04049 whole entry): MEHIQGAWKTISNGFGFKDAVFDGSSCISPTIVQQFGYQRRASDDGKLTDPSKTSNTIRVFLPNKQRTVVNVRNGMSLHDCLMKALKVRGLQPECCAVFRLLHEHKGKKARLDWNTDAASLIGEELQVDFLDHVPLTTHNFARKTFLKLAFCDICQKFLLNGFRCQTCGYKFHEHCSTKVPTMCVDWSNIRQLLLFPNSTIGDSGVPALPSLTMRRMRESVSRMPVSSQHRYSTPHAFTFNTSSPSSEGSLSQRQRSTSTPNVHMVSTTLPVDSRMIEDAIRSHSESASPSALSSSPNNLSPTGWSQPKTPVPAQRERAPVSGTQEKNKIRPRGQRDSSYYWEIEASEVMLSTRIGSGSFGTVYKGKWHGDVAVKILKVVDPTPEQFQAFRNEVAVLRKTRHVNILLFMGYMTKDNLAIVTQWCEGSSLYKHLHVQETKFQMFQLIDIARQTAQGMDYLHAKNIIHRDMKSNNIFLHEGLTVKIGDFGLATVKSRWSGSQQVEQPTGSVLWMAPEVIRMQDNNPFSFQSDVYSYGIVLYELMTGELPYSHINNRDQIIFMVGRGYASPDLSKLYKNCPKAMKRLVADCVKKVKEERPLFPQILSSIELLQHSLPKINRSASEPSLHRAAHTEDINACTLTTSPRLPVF
Chain of Serine/threonine-protein kinase B-raf (Homo sapiens), P15056 [V600E] (P15056 whole entry V600E): as the sequence (P15056 whole entry) above, with V600E counted along it
Chain of Tyrosine-protein kinase JAK3 (Homo sapiens) (P52333 whole entry): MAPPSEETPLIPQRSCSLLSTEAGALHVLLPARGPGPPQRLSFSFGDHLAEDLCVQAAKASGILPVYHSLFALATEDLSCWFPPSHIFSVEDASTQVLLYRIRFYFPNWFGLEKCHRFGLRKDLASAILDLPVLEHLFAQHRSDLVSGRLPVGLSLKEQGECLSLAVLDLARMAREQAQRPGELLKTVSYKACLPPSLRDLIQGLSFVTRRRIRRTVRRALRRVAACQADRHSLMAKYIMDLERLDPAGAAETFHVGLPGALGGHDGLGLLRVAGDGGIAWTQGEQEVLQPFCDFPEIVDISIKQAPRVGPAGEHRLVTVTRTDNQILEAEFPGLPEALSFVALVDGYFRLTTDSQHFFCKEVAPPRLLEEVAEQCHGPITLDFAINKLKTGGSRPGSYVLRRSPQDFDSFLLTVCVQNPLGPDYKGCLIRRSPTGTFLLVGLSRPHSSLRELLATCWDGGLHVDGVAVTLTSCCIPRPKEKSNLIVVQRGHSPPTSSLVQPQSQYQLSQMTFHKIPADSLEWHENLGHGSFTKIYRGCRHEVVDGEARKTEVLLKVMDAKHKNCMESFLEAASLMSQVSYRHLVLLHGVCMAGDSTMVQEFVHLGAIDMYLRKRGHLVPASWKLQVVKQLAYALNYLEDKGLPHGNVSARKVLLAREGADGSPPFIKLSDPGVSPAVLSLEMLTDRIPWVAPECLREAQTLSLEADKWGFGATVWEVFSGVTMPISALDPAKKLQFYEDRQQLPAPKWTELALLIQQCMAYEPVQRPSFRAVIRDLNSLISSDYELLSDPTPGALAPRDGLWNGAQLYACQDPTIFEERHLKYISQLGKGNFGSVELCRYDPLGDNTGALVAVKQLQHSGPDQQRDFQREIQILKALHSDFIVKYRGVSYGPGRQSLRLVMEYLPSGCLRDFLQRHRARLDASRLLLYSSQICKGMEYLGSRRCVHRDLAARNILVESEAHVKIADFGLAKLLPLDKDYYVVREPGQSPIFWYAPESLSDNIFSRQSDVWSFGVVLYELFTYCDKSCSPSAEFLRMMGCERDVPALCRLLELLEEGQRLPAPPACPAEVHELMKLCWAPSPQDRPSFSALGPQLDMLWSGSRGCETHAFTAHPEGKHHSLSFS
Chain of Receptor-type tyrosine-protein kinase FLT3 (Homo sapiens) (P36888 whole entry): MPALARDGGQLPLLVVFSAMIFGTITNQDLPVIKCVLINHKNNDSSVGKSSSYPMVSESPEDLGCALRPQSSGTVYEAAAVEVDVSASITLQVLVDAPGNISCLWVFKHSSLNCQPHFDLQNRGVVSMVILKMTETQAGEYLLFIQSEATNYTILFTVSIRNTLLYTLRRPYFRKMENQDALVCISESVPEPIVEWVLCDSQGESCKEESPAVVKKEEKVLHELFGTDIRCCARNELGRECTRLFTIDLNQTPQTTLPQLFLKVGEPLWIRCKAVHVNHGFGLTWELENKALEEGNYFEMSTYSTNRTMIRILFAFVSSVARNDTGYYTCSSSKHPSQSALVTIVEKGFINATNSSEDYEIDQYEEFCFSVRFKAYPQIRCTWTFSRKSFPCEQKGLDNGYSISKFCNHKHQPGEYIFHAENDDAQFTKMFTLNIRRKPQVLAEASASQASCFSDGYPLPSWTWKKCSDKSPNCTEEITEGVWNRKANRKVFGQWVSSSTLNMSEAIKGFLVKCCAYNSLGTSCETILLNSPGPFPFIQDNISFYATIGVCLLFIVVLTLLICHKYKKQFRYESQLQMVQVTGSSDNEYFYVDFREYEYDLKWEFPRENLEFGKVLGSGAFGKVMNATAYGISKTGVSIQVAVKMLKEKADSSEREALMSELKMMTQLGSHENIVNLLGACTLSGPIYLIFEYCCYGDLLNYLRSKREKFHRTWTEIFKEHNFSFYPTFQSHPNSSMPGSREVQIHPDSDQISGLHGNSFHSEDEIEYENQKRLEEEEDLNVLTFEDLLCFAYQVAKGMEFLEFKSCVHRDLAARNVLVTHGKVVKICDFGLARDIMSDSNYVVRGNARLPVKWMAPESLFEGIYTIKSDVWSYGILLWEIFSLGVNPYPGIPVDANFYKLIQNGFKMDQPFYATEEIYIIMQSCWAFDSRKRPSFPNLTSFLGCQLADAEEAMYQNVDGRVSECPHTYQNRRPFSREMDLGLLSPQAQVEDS
Chain of Tyrosine-protein kinase ABL1 (Homo sapiens) (P00519 whole entry): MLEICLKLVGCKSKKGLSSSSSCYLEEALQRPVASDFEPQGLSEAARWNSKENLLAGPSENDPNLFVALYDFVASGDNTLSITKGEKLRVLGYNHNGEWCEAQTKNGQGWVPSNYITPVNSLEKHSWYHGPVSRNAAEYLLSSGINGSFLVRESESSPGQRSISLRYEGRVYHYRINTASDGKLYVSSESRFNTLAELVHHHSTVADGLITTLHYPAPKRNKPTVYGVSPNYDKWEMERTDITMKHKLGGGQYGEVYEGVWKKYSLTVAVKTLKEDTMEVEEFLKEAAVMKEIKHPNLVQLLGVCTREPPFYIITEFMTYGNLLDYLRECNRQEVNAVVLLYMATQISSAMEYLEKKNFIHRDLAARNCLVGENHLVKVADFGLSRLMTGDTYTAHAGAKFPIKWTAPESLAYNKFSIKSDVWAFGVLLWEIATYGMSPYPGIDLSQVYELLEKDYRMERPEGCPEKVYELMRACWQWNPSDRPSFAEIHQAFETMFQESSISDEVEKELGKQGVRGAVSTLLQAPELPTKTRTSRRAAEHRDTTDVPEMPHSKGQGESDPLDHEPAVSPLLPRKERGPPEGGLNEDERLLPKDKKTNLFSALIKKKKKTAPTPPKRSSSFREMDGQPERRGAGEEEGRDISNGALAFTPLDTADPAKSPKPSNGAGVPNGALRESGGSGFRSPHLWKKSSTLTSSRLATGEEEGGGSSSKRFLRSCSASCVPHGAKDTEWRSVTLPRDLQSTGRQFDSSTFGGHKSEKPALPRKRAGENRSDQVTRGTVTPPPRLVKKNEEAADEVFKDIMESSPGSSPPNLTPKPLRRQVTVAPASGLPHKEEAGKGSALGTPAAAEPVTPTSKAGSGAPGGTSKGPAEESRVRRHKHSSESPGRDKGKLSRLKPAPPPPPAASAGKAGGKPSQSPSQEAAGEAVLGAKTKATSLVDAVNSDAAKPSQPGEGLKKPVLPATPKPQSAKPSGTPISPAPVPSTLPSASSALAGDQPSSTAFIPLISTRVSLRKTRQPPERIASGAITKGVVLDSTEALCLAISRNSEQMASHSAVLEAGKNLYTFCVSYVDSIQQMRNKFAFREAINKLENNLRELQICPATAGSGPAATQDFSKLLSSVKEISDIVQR
Chain of Dual specificity mitogen-activated protein kinase kinase 1 (Homo sapiens) (Q02750 whole entry): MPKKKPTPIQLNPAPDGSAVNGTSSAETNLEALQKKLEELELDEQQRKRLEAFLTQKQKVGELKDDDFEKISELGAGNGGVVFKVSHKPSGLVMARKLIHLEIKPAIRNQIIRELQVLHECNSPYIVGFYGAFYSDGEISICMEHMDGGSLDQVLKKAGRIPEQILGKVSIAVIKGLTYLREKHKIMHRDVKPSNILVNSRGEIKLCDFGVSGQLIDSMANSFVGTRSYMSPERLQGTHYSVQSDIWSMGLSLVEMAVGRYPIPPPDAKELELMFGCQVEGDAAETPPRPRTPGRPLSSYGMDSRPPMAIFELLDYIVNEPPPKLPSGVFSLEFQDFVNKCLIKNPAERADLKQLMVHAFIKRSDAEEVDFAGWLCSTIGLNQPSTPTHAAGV

In the case of `C[C@H](NC(=O)c1[nH]nc2cc(NC(=O)c3cccc(C(C)(C)C#N)c3)ccc12)C(N)=O`, the GI50 [1] is reported as > 30 µM and the GI50 [2] is reported as > 30 µM.

In the case of `COc1cccc(CNc2ccc3c(C(=O)N[C@@H](C)C(N)=O)[nH]nc3c2)c1`, the GI50 [1] is reported as 17.8 µM and the GI50 [2] is reported as 7.19 µM.

`Cc1cncn1-c1cc(C(=O)Nc2ccc3c(C(=O)N[C@@H](C)C(N)=O)[nH]nc3c2)cc(C(F)(F)F)c1` showed a GI50 [1] of 7.19 µM and a GI50 [2] of 12.9 µM.

For `C[C@H](NC(=O)c1[nH]nc2cc(NC(=O)Nc3ccc(Cl)c(C(F)(F)F)c3)ccc12)C(N)=O`, the GI50 [1] was 8.58 µM and the GI50 [2] was 6.59 µM.

In the case of `COc1ccc(-c2ccc(C(=O)Nc3ccc4c(C(=O)N[C@@H](C)C(N)=O)[nH]nc4c3)o2)cc1`, the GI50 [1] is reported as 19.2 µM and the GI50 [2] is reported as 7.86 µM.

In the case of `C[C@H](NC(=O)c1[nH]nc2cc(NC(=O)Nc3cccc(C(F)(F)F)c3)ccc12)C(N)=O`, the GI50 [1] is reported as 8.41 µM and the GI50 [2] is reported as 6.43 µM.

For `C[C@H](NC(=O)c1[nH]nc2cc(NC(=O)Nc3ccc(C(F)(F)F)c(N4CCOCC4)c3)ccc12)C(N)=O`, the GI50 [1] was 10.1 µM and the GI50 [2] was 3.51 µM.

For `C[C@H](NC(=O)c1[nH]nc2cc(NC(=O)C(c3ccccc3)c3ccccc3)ccc12)C(N)=O`, the GI50 [1] was > 30 µM and the GI50 [2] was > 30 µM.

`Cc1cncn1-c1cc(C(=O)Nc2cccc(CNc3ccc4c(C(=O)N[C@@H](C)C(N)=O)[nH]nc4c3)c2)cc(C(F)(F)F)c1` gave an inhibition [3] of 22.2%, an inhibition [4] of 2.44% and an inhibition [5] of 7.62%. For the same molecule, the inhibition [6] was 0%, the IC50 [7] was 9.45 µM and the inhibition [8] was 11.4%. The GI50 [1] was 15.9 µM, the inhibition [9] was 0% and the inhibition [10] was 0%. The IC50 [11] was 7.82 µM, the inhibition [12] was 0% and the inhibition [13] was 8.36%. The inhibition [14] was 9.84%, the inhibition [15] was 10.6% and the GI50 [2] was 0.65 µM. It also gave an inhibition [16] of 0%, an inhibition [17] of 0% and an inhibition [18] of 7.08%. The inhibition [19] was 2.89%, the inhibition [20] was 99.4% and the inhibition (Homo sapiens) was 0%. The inhibition [21] was 5.4%, the inhibition [22] was 4.99% and the inhibition [23] was 4.2%. It also gave an inhibition [24] of 0%, an inhibition [25] of 8.88% and an inhibition [26] of 9.75%. It also gave an inhibition [27] of 0%, an inhibition [28] of 1.16% and an inhibition [29] of 12.3%. The inhibition [30] was 9.04%, the inhibition [31] was 1.49% and the inhibition [32] was 0.7%. It also gave a RatioGI50 [33] of 25, an IC50 [34] of 38.6 µM and an inhibition [35] of 19.5%. The inhibition [36] was 0%, the inhibition [37] was 3.1% and the inhibition [38] was 21.1%. The inhibition [39] was 14.9%.

Work on `C[C@H](NC(=O)c1[nH]nc2cc(NC(=O)c3ccc(C(F)(F)F)c(N4CCOCC4)c3)ccc12)C(N)=O` yielded a GI50 [1] of 28.3 µM and a GI50 [2] of 7.37 µM.

Work on `C[C@H](NC(=O)c1[nH]nc2cc(NC(=O)Nc3ccc(N4CCOCC4)cc3)ccc12)C(N)=O` yielded a GI50 [1] of 12.3 µM and a GI50 [2] of 9.29 µM.

Work on `C[C@H](NC(=O)c1[nH]nc2cc(NCc3cccc(NC(=O)c4cccc(C(C)(C)C#N)c4)c3)ccc12)C(N)=O` yielded a GI50 [1] of 28.3 µM and a GI50 [2] of 7.37 µM.

Molecule `C[C@H](NC(=O)c1[nH]nc2cc(NCc3cccc(NC(=O)c4cnccn4)c3)ccc12)C(N)=O` has a GI50 [1] of 19.2 µM and a GI50 [2] of 7.86 µM.

In the case of `C[C@H](NC(=O)c1[nH]nc2cc(NC(=O)c3ccc4ncccc4c3)ccc12)C(N)=O`, the GI50 [1] is reported as > 30 µM and the GI50 [2] is reported as > 30 µM.

With `C[C@H](NC(=O)c1[nH]nc2cc(NC(=O)c3ccccc3)ccc12)C(N)=O` the GI50 [1] was > 30 µM and the GI50 [2] was > 30 µM.

`C[C@H](NC(=O)c1[nH]nc2cc(NCc3ccc(F)cc3)ccc12)C(N)=O` showed a GI50 [1] of 10.1 µM and a GI50 [2] of 9.05 µM.

In the case of `C[C@H](NC(=O)c1[nH]nc2cc(NCc3cccc(NC(=O)c4ccc(Cl)c(C(F)(F)F)c4)c3)ccc12)C(N)=O`, the GI50 [1] is reported as 7.19 µM and the GI50 [2] is reported as 4.54 µM.

In the case of `C[C@H](NC(=O)c1[nH]nc2cc(NC(=O)c3cc4ccccc4s3)ccc12)C(N)=O`, the GI50 [1] is reported as 28.2 µM and the GI50 [2] is reported as > 30 µM.

With `C[C@H](NC(=O)c1[nH]nc2cc(NC(=O)c3cc(N4CCOCC4)cc(C(F)(F)F)c3)ccc12)C(N)=O` the GI50 [1] was > 30 µM and the GI50 [2] was > 30 µM.

With `C[C@H](NC(=O)c1[nH]nc2cc(NCc3cccc(NC(=O)c4cc(N5CCOCC5)cc(C(F)(F)F)c4)c3)ccc12)C(N)=O` the GI50 [1] was 25.6 µM and the GI50 [2] was 2.25 µM.

With `C[C@H](NC(=O)c1[nH]nc2cc(NC(=O)c3cccc(C(F)(F)F)c3)ccc12)C(N)=O` the GI50 [1] was > 30 µM and the GI50 [2] was > 30 µM.

With `CNC(=O)c1cc(Oc2ccc(NC(=O)Nc3ccc(Cl)c(C(F)(F)F)c3)cc2)ccn1` [SORAFENIB] the GI50 [1] was 2.58 µM and the GI50 [2] was 0.78 µM.

With `COc1ccc(-n2ncc(C(=O)Nc3ccc4c(C(=O)N[C@@H](C)C(N)=O)[nH]nc4c3)c2C(F)(F)F)cc1` the GI50 [1] was 24.6 µM and the GI50 [2] was 3.28 µM.

`C[C@H](NC(=O)c1[nH]nc2cc(NC(=O)c3ccc(Cl)c(C(F)(F)F)c3)ccc12)C(N)=O` showed a GI50 [1] of 10.5 µM and a GI50 [2] of 9.13 µM.
